# Measurements taken from PubChem BioAssay AID330 (DTP/NCI, 2004).
# Where “and” joins values, the source holds several entries; their conditions need not be identical. Equal entries are not always repeated. Toxic doses and inconclusive results are not listed.
# Tested on: P388 leukemia ip, CD2F1 mice, survival T/C
# Test: NCI In Vivo Anticancer Drug Screen. Data for tumor model P388 Leukemia (intraperitoneal) in CD2F1 (CDF1) mice
# Settings: endpoint: median survival time, higher = longer survival
# Summary of the method: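 Mice carrying the transplanted tumor received test compound or vehicle. Survival was recorded in each group, and the value is the treated-group measurement divided by that of the vehicle-treated control group.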
structure (smiles),measurement,setting,value
O=C(O)c1cnc2cc(C(F)(F)F)ccc2c1Nc1ccc2c(c1)OCO2,T/C,"dose: 60.0 mg/kg/injection, schedule: Q01DX005 (ip), vehicle: Klucel + Tween-80",103 % of control
same,T/C,"dose: 120.0 mg/kg/injection, schedule: Q01DX005 (ip), vehicle: Klucel + Tween-80",98 % of control
same,T/C,"dose: 240.0 mg/kg/injection, schedule: Q01DX005 (ip), vehicle: Klucel + Tween-80",97 % of control
COc1ccc(C)cc1N=NC1C(=O)N(C(=O)CC(=O)Nc2cccc(C)c2)N=C1C (stereo not given),T/C,"dose: 60.0 mg/kg/injection, schedule: Q01DX005 (ip), vehicle: Klucel (hydroxypropylcellulose) (HPC)",95 % of control
same,T/C,"dose: 120.0 mg/kg/injection, schedule: Q01DX005 (ip), vehicle: Klucel (hydroxypropylcellulose) (HPC)",89 % of control
same,T/C,"dose: 240.0 mg/kg/injection, schedule: Q01DX005 (ip), vehicle: Klucel (hydroxypropylcellulose) (HPC)",90 % of control
CN(C)CCN(Cc1ccc(Cl)s1)c1ccccn1,T/C,"dose: 50.0 mg/kg/injection, schedule: Q01DX005 (ip), vehicle: saline",101 % of control
same,T/C,"dose: 100.0 mg/kg/injection, schedule: Q01DX005 (ip), vehicle: saline",99 % of control
Nc1nc(-c2cc(C(c3ccccc3)c3ccccc3)nc(N)n2)cc(C(c2ccccc2)c2ccccc2)n1,T/C,"dose: 60.0 mg/kg/injection, schedule: Q01DX005 (ip), vehicle: saline with Tween-80",105 % of control
same,T/C,"dose: 120.0 mg/kg/injection, schedule: Q01DX005 (ip), vehicle: saline with Tween-80",109 % of control
same,T/C,"dose: 240.0 mg/kg/injection, schedule: Q01DX005 (ip), vehicle: saline with Tween-80",101 % of control
Clc1nn2cnnc2c2ncccc12,T/C,"dose: 12.5 mg/kg/injection, schedule: Q01DX009 (ip), vehicle: Klucel (hydroxypropylcellulose) (HPC)",91 % of control
same,T/C,"dose: 25.0 mg/kg/injection, schedule: Q01DX009 (ip), vehicle: Klucel (hydroxypropylcellulose) (HPC)",96 % of control
same,T/C,"dose: 50.0 mg/kg/injection, schedule: Q01DX009 (ip), vehicle: Klucel (hydroxypropylcellulose) (HPC)",92 % of control and 97 % of control
CC(=O)[C@]1(O)Cc2c(O)c3c(c(O)c2[C@@H](OC2CC(N)C(O)C(C)O2)C1)C(=O)c1c(O)cccc1C3=O (stereo not given in full),T/C,"dose: 0.05 mg/kg/injection, schedule: Q01DX009 (ip), vehicle: saline",150 % of control
same,T/C,"dose: 0.08 mg/kg/injection, schedule: Q01DX009 (ip), vehicle: saline",159 % of control
same,T/C,"dose: 0.08 mg/kg/injection, schedule: Q04DX003 (ip), vehicle: water",100 % of control and 97 % of control
same,T/C,"dose: 0.1 mg/kg/injection, schedule: Q04DX003 (ip), vehicle: saline",123 % of control
same,T/C,"dose: 0.14 mg/kg/injection, schedule: Q01DX009 (ip), vehicle: saline",177 % of control
same,T/C,"dose: 0.16 mg/kg/injection, schedule: Q04DX003 (ip), vehicle: water",109 % of control and 87 % of control
same,T/C,"dose: 0.25 mg/kg/injection, schedule: Q04DX003 (ip), vehicle: water",119 % of control and 94 % of control
same,T/C,"dose: 0.3 mg/kg/injection, schedule: Q04DX003 (ip), vehicle: saline",154 % of control
same,T/C,"dose: 0.32 mg/kg/injection, schedule: Q04DX003 (ip), vehicle: saline",159 % of control
same,T/C,"dose: 0.36 mg/kg/injection, schedule: Q04DX003 (ip), vehicle: saline",160 % of control and 173 % of control
same,T/C,"dose: 0.36 mg/kg/injection, schedule: Q04DX003 (ip), vehicle: water",161 % of control
same,T/C,"dose: 0.39 mg/kg/injection, schedule: Q01DX001 (ip), vehicle: saline",159 % of control
same,T/C,"dose: 0.39 mg/kg/injection, schedule: Q01DX009 (ip), vehicle: saline",100 % of control
same,T/C,"dose: 0.39 mg/kg/injection, schedule: Q04DX003 (ip), vehicle: saline",163 % of control
same,T/C,"dose: 0.4 mg/kg/injection, schedule: Q04DX003 (ip), vehicle: saline",154 % of control
same,T/C,"dose: 0.43 mg/kg/injection, schedule: Q01DX001 (ip), vehicle: saline",152 % of control and 160 % of control
same,T/C,"dose: 0.43 mg/kg/injection, schedule: Q04DX003 (ip), vehicle: saline",165 % of control
same,T/C,"dose: 0.5 mg/kg/injection, schedule: Q04DX003 (ip), vehicle: water",116 % of control and 124 % of control
same,T/C,"dose: 0.54 mg/kg/injection, schedule: Q04DX003 (ip), vehicle: saline",161 % of control
same,T/C,"dose: 0.6 mg/kg/injection, schedule: Q04DX003 (ip), vehicle: saline",154 % of control and 168 % of control
same,T/C,"dose: 0.6 mg/kg/injection, schedule: Q04DX003 (ip), vehicle: water",170 % of control
same,T/C,"dose: 0.6 mg/kg/injection, schedule: Q04DX003 (oral), vehicle: saline",112 % of control
same,T/C,"dose: 0.64 mg/kg/injection, schedule: Q04DX003 (ip), vehicle: water",109 % of control and 115 % of control and 274 % of control
same,T/C,"dose: 0.65 mg/kg/injection, schedule: Q01DX001 (ip), vehicle: saline",172 % of control
same,T/C,"dose: 0.65 mg/kg/injection, schedule: Q04DX003 (ip), vehicle: saline",172 % of control
same,T/C,"dose: 0.72 mg/kg/injection, schedule: Q01DX001 (ip), vehicle: saline",161 % of control and 180 % of control
same,T/C,"dose: 0.72 mg/kg/injection, schedule: Q04DX003 (ip), vehicle: saline",167 % of control
same,T/C,"dose: 0.9 mg/kg/injection, schedule: Q04DX003 (ip), vehicle: saline",160 % of control and 186 % of control
same,T/C,"dose: 1.0 mg/kg/injection, schedule: Q04DX003 (ip), vehicle: saline",92 % of control and 94 % of control
same,T/C,"dose: 1.0 mg/kg/injection, schedule: Q04DX003 (ip), vehicle: water",102 % of control
same,T/C,"dose: 1.0 mg/kg/injection, schedule: Q04DX003 (oral), vehicle: saline",110 % of control
same,T/C,"dose: 1.08 mg/kg/injection, schedule: Q01DX001 (ip), vehicle: saline",95 % of control
same,T/C,"dose: 1.08 mg/kg/injection, schedule: Q04DX003 (ip), vehicle: saline",100 % of control
same,T/C,"dose: 1.2 mg/kg/injection, schedule: Q01DX001 (ip), vehicle: saline",105 % of control
same,T/C,"dose: 1.2 mg/kg/injection, schedule: Q01DX001 (oral), vehicle: saline",110 % of control
same,T/C,"dose: 1.2 mg/kg/injection, schedule: Q04DX003 (ip), vehicle: saline",110 % of control
same,T/C,"dose: 1.5 mg/kg/injection, schedule: Q04DX003 (ip), vehicle: saline",108 % of control
same,T/C,"dose: 1.67 mg/kg/injection, schedule: Q04DX003 (oral), vehicle: saline",115 % of control
same,T/C,"dose: 2.0 mg/kg/injection, schedule: Q01DX001 (oral), vehicle: saline",102 % of control
same,T/C,"dose: 2.0 mg/kg/injection, schedule: Q04DX003 (ip), vehicle: water",116 % of control
same,T/C,"dose: 2.78 mg/kg/injection, schedule: Q04DX003 (oral), vehicle: saline",106 % of control and 110 % of control
same,T/C,"dose: 3.2 mg/kg/injection, schedule: Q04DX003 (ip), vehicle: saline",105 % of control
same,T/C,"dose: 3.33 mg/kg/injection, schedule: Q01DX001 (oral), vehicle: saline",111 % of control and 116 % of control
same,T/C,"dose: 4.63 mg/kg/injection, schedule: Q04DX003 (oral), vehicle: saline",113 % of control
same,T/C,"dose: 5.56 mg/kg/injection, schedule: Q01DX001 (oral), vehicle: saline",114 % of control
same,T/C,"dose: 6.4 mg/kg/injection, schedule: Q04DX003 (ip), vehicle: saline",99 % of control
same,T/C,"dose: 7.72 mg/kg/injection, schedule: Q04DX003 (oral), vehicle: saline",166 % of control
same,T/C,"dose: 9.26 mg/kg/injection, schedule: Q01DX001 (oral), vehicle: saline",152 % of control
same,T/C,"dose: 12.9 mg/kg/injection, schedule: Q04DX003 (oral), vehicle: saline",164 % of control
same,T/C,"dose: 6.25 micrograms/kg/injection, schedule: Q04DX003 (ip), vehicle: saline",120 % of control
same,T/C,"dose: 15.0 micrograms/kg/injection, schedule: Q04DX003 (ip), vehicle: saline",111 % of control
same,T/C,"dose: 25.0 micrograms/kg/injection, schedule: Q04DX003 (ip), vehicle: saline",116 % of control
same,T/C,"dose: 31.0 micrograms/kg/injection, schedule: Q04DX003 (ip), vehicle: saline",111 % of control
same,T/C,"dose: 50.0 micrograms/kg/injection, schedule: Q04DX003 (ip), vehicle: saline",111 % of control
same,T/C,"dose: 62.0 micrograms/kg/injection, schedule: Q04DX003 (ip), vehicle: saline",107 % of control
same,T/C,"dose: 125.0 micrograms/kg/injection, schedule: Q04DX003 (ip), vehicle: saline",107 % of control
same,T/C,"dose: 200.0 micrograms/kg/injection, schedule: Q04DX003 (ip), vehicle: saline",119 % of control
same,T/C,"dose: 500.0 micrograms/kg/injection, schedule: Q04DX003 (ip), vehicle: saline",156 % of control
same,T/C,"dose: 800.0 micrograms/kg/injection, schedule: Q04DX003 (ip), vehicle: saline",122 % of control
same,T/C,"dose: 1000.0 micrograms/kg/injection, schedule: Q04DX003 (ip), vehicle: saline",166 % of control
same,T/C,"dose: 2000.0 micrograms/kg/injection, schedule: Q04DX003 (ip), vehicle: saline",88 % of control
same,T/C,"dose: 3200.0 micrograms/kg/injection, schedule: Q04DX003 (ip), vehicle: saline",103 % of control
same,T/C,"dose: 6400.0 micrograms/kg/injection, schedule: Q04DX003 (ip), vehicle: saline",116 % of control
CC1CC(=O)c2c(O)ccc(Cl)c21 (stereo not given),T/C,"dose: 50.0 mg/kg/injection, schedule: Q01DX005 (ip), vehicle: Klucel (hydroxypropylcellulose) (HPC)",106 % of control
same,T/C,"dose: 100.0 mg/kg/injection, schedule: Q01DX005 (ip), vehicle: Klucel (hydroxypropylcellulose) (HPC)",104 % of control
same,T/C,"dose: 200.0 mg/kg/injection, schedule: Q01DX005 (ip), vehicle: Klucel (hydroxypropylcellulose) (HPC)",100 % of control
